pIC50: −log10 of the molar value. Read-outs that look alike come from different tables or passages of the source.
What was measured:
[1] = target: T1, panel of 255 wild-type kinases (Homo sapiens, UniProt P15735); settings: kinase PHKG2; 1 µmol/L single concentration; ref DOI: 10.1371/journal.pone.0092146; cited from earlier work
T1 sequence (P15735 1-406): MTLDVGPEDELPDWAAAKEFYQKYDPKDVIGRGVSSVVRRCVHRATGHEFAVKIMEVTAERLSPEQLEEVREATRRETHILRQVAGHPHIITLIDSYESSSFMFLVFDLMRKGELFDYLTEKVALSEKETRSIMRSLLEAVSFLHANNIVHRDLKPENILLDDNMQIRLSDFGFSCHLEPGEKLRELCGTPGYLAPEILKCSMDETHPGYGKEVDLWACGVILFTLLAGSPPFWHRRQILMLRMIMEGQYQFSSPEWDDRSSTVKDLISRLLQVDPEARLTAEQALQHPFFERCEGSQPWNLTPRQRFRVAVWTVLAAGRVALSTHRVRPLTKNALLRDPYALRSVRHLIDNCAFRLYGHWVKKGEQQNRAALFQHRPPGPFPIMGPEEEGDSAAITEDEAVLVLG

AP-1060 (ETV6-NTRK3) = assay: Cell viability assay; settings: read-out: IC50 in cell proliferation assay
134 cancer cell lines = assay: Cell viability assay (ATPlite, 72 hours), IC50 on cancer cell line panel

In the case of `CC(=O)Nc1cccc(-n2c(=O)n(C3CC3)c(=O)c3c(Nc4ccc(I)cc4F)n(C)c(=O)c(C)c32)c1` [trametinib], the “%-inhibition at 1 µmol/L, PHKG2” value [1] is listed as 2.81%, the pIC50 (AP-1060 (ETV6-NTRK3)) is listed as 6.54 and the pIC50 (134 cancer cell lines; HEC-6, read-out: IC50 in cell proliferation assay, HEC-6 cell line (EGFR p.A289V)) is listed as less than 4.50. For the same molecule, the pIC50 (134 cancer cell lines; Homo sapiens, 769-P, read-out: IC50 in cell proliferation assay, cell line 769-P) was 7.02, the pIC50 (134 cancer cell lines; Homo sapiens, 786-0, read-out: IC50 in cell proliferation assay, cell line 786-O) was 7.38 and the pIC50 (134 cancer cell lines; Homo sapiens, A 172, read-out: IC50 in cell proliferation assay, cell line A-172) was 6.63. It also gave a pIC50 (134 cancer cell lines; Homo sapiens, A204, read-out: IC50 in cell proliferation assay, cell line A-204) of 5.91, a pIC50 (134 cancer cell lines; Homo sapiens, A498, read-out: IC50 in cell proliferation assay, cell line A-498) of 4.86 and a pIC50 (134 cancer cell lines; Homo sapiens, A549, read-out: IC50 in cell proliferation assay, cell line A-549) of 8.10. The pIC50 (134 cancer cell lines; Homo sapiens, A704, read-out: IC50 in cell proliferation assay, cell line A-704) was less than 4.55, the pIC50 (134 cancer cell lines; Homo sapiens, A-375, read-out: IC50 in cell proliferation assay, cell line A-375 (BRAF p.V600E)) was 8.30 and the pIC50 (134 cancer cell lines; Homo sapiens, A-427, read-out: IC50 in cell proliferation assay, cell line A-427) was 8.67. The pIC50 (134 cancer cell lines; Homo sapiens, ACHN, read-out: IC50 in cell proliferation assay, cell line ACHN) was 8.22, the pIC50 (134 cancer cell lines; Homo sapiens, AN3-CA, read-out: IC50 in cell proliferation assay, cell line AN3-CA (FGFR2 p.N549K)) was 7.30 and the pIC50 (134 cancer cell lines; Homo sapiens, ASPC1, read-out: IC50 in cell proliferation assay, cell line AsPC-1) was 7.85. For the same molecule, the pIC50 (134 cancer cell lines; Homo sapiens, AU565, read-out: IC50 in cell proliferation assay, cell line AU565 (ERBB2 amplification)) was less than 4.55, the pIC50 (134 cancer cell lines; Homo sapiens, BT-20, read-out: IC50 in cell proliferation assay, cell line BT-20) was less than 4.55 and the pIC50 (134 cancer cell lines; Homo sapiens, BT-474, read-out: IC50 in cell proliferation assay, cell line BT-474 (ERBB2 amplification)) was less than 4.50. The pIC50 (134 cancer cell lines; Homo sapiens, BT-549, read-out: IC50 in cell proliferation assay, cell line BT-549) was 6.50, the pIC50 (134 cancer cell lines; Homo sapiens, BXPC-3, read-out: IC50 in cell proliferation assay, cell line BxPC-3) was 7.42 and the pIC50 (134 cancer cell lines; Homo sapiens, C-33-A, read-out: IC50 in cell proliferation assay, cell line C-33 A) was 8.35. The pIC50 (134 cancer cell lines; Homo sapiens, CAL-27, read-out: IC50 in cell proliferation assay, cell line CAL-27) was 7.96, the pIC50 (134 cancer cell lines; Homo sapiens, CCF-STTG1, read-out: IC50 in cell proliferation assay, cell line CCF-STTG1) was less than 4.55 and the pIC50 (134 cancer cell lines; Homo sapiens, CCRF-CEM, read-out: IC50 in cell proliferation assay, cell line CCRF-CEM) was less than 4.55. The pIC50 (134 cancer cell lines; Homo sapiens, COLO 205, read-out: IC50 in cell proliferation assay, cell line COLO 205 (BRAF p.V600E)) was 8.40, the pIC50 (134 cancer cell lines; Homo sapiens, COLO-829, read-out: IC50 in cell proliferation assay, cell line COLO 829 (BRAF p.V600E)) was 7.80 and the pIC50 (134 cancer cell lines; Homo sapiens, DLD-1, read-out: IC50 in cell proliferation assay, cell line DLD-1) was 6.29. The pIC50 (134 cancer cell lines; Homo sapiens, DU-4475, read-out: IC50 in cell proliferation assay, cell line DU4475 (BRAF p.V600E)) was 8.00, the pIC50 (134 cancer cell lines; Homo sapiens, Daoy, read-out: IC50 in cell proliferation assay, cell line Daoy) was 6.37 and the pIC50 (134 cancer cell lines; Homo sapiens, DoTc2-4510, read-out: IC50 in cell proliferation assay, cell line DoTc2 4510) was 8.10. For the same molecule, the pIC50 (134 cancer cell lines; Homo sapiens, EOL1, read-out: IC50 in cell proliferation assay, cell line EoL-1 (FIP1L1-PDGFRA)) was 8.10, the pIC50 (134 cancer cell lines; Homo sapiens, FaDu, read-out: IC50 in cell proliferation assay, cell line FaDu) was 7.72 and the pIC50 (134 cancer cell lines; Homo sapiens, G-361, read-out: IC50 in cell proliferation assay, cell line G-361 (BRAF p.V600E)) was 8.26. For the same molecule, the pIC50 (134 cancer cell lines; Homo sapiens, HCC827, read-out: IC50 in cell proliferation assay, cell line HCC827 (EGFR exon19del)) was 6.82, the pIC50 (134 cancer cell lines; Homo sapiens, HCC4006, read-out: IC50 in cell proliferation assay, cell line HCC4006 (EGFR exon19del)) was 6.09 and the pIC50 (134 cancer cell lines; Homo sapiens, HCT-15, read-out: IC50 in cell proliferation assay, cell line HCT 15) was 5.76. It also gave a pIC50 (134 cancer cell lines; Homo sapiens, HCT-116, read-out: IC50 in cell proliferation assay, cell line HCT 116) of 7.54, a pIC50 (134 cancer cell lines; Homo sapiens, HEC-1, read-out: IC50 in cell proliferation assay, HEC-1 cell line) of 6.48 and a pIC50 (134 cancer cell lines; Homo sapiens, HEC-1B, read-out: IC50 in cell proliferation assay, HEC-1-B cell line (EGFR p.A864V)) of 8.20. For the same molecule, the pIC50 (134 cancer cell lines; Homo sapiens, HL-60, read-out: IC50 in cell proliferation assay, HL-60 cell line) was 9.00, the pIC50 (134 cancer cell lines; Homo sapiens, HT, read-out: IC50 in cell proliferation assay, HT cell line) was less than 4.55 and the pIC50 (134 cancer cell lines; Homo sapiens, HT-1080, read-out: IC50 in cell proliferation assay, HT-1080 cell line) was 7.55. The pIC50 (134 cancer cell lines; Homo sapiens, Hs746T, read-out: IC50 in cell proliferation assay, Hs 746.T cell line (MET exon14skip + amplification)) was 7.09, the pIC50 (134 cancer cell lines; Homo sapiens, Hs-578T, read-out: IC50 in cell proliferation assay, Hs 578T cell line) was 6.68 and the pIC50 (134 cancer cell lines; Homo sapiens, HuTu80, read-out: IC50 in cell proliferation assay, HuTu 80 cell line) was 6.89. It also gave a pIC50 (134 cancer cell lines; Homo sapiens, J82, read-out: IC50 in cell proliferation assay, J82 cell line) of less than 4.55, a pIC50 (134 cancer cell lines; Homo sapiens, Jurkat E6.1, read-out: IC50 in cell proliferation assay, Jurkat E6.1 cell line) of less than 4.55 and a pIC50 (134 cancer cell lines; Homo sapiens, K562, read-out: IC50 in cell proliferation assay, K-562 cell line) of 7.66. For the same molecule, the pIC50 (134 cancer cell lines; Homo sapiens, KATO III, read-out: IC50 in cell proliferation assay, KATO III cell line (FGFR2 amplification)) was 6.85, the pIC50 (134 cancer cell lines; Homo sapiens, KG-1, read-out: IC50 in cell proliferation assay, KG-1 cell line (FGFR1OP2-FGFR1)) was 8.05 and the pIC50 (134 cancer cell lines; Homo sapiens, KLE, read-out: IC50 in cell proliferation assay, KLE cell line) was less than 4.55. The pIC50 (134 cancer cell lines; Homo sapiens, KMS-11, read-out: IC50 in cell proliferation assay, KMS-11 cell line (FGFR3 p.Y373C)) was less than 4.50, the pIC50 (134 cancer cell lines; Homo sapiens, KU812, read-out: IC50 in cell proliferation assay, Ku812 cell line) was 7.89 and the pIC50 (134 cancer cell lines; Homo sapiens, Kasumi 1, read-out: IC50 in cell proliferation assay, Kasumi-1 cell line (KIT p.N822K)) was 7.54. For the same molecule, the pIC50 (134 cancer cell lines; Homo sapiens, LC-2-ad, read-out: IC50 in cell proliferation assay, LC-2/ad cell line (CCDC6-RET)) was 6.78, the pIC50 (134 cancer cell lines; Homo sapiens, LNCaP-Clone-FGC, read-out: IC50 in cell proliferation assay, LNCaP clone FGC cell line) was less than 4.55 and the pIC50 (134 cancer cell lines; Homo sapiens, LS174T, read-out: IC50 in cell proliferation assay, LS174T cell line) was 7.52. The pIC50 (134 cancer cell lines; Homo sapiens, LS-411N, read-out: IC50 in cell proliferation assay, LS411N cell line (BRAF p.V600E)) was 8.05, the pIC50 (134 cancer cell lines; Homo sapiens, LoVo, read-out: IC50 in cell proliferation assay, LoVo cell line) was 7.49 and the pIC50 (134 cancer cell lines; Homo sapiens, MCF7, read-out: IC50 in cell proliferation assay, MCF-7 cell line) was less than 4.55. It also gave a pIC50 (134 cancer cell lines; Homo sapiens, MDA-MB-231, read-out: IC50 in cell proliferation assay, MDA-MB-231 cell line) of 7.36, a pIC50 (134 cancer cell lines; Homo sapiens, MDA-MB-453, read-out: IC50 in cell proliferation assay, MDA-MB-453 cell line) of 6.57 and a pIC50 (134 cancer cell lines; Homo sapiens, MDA-MB-468, read-out: IC50 in cell proliferation assay, MDA-MB-468 cell line) of 6.82. The pIC50 (134 cancer cell lines; Homo sapiens, MG-63, read-out: IC50 in cell proliferation assay, MG-63 cell line) was 6.59, the pIC50 (134 cancer cell lines; Homo sapiens, MIA PaCa-2, read-out: IC50 in cell proliferation assay, MIA PaCa-2 cell line) was 7.48 and the pIC50 (134 cancer cell lines; Homo sapiens, MKN-45, read-out: IC50 in cell proliferation assay, MKN45 cell line (MET amplification)) was 7.08. It also gave a pIC50 (134 cancer cell lines; Homo sapiens, MOLM-13, read-out: IC50 in cell proliferation assay, MOLM-13 cell line (FLT3 ITD)) of 7.47.

— PMC9516332 (Frontiers in Oncology, 2022)
